This experiment has as its system p-IKKa levels in L363 (NIK translocated multiple myeloma) cells. Kind of experiment: Assay 2: Effect of compounds on p-IKKa levels in L363 (NIK translocated multiple myeloma) cells. Format: cell-based. As to conditions: Homo sapiens, L-363, 6 h, read-out: Assay 2 IC50 (nM), p-IKKa (Ser 176/180) in BAFF stimulated L363 cells with MG132, 6 h; average if tested more than once. In short, it runs like this: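 Read-out is p-IKKa Ser176/180 by AlphaLISA SureFire in lysates. Cells were BAFF-primed (250 ng/ml) overnight or left unstimulated, then exposed 6 h at 37 °C to compound with MG132 (10 μM), 0.3% DMSO. IC50 from sigmoidal curve fit, normalized between stimulated and unstimulated controls.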

Take `CN1CC[C@@](O)(c2cc(-c3cccc(-c4ccnc(N[C@@H]5CCSC5)n4)n3)no2)C1=O` (single isomer, unassigned) [Example 458, (R)-3-Hydroxy-1-methyl-3-(3-(6-(2-(((*R)-tetrahydrothiophen-3-yl)amino)pyrimidin-4-yl)pyridin-2-yl)isoxazol-5-yl)pyrrolidin-2-one]: the IC50 was 50 to 500 nM. Next, `CO[C@H](CNc1nccc(-c2cccc(-c3cc([C@]4(O)CCN(C)C4=O)on3)n2)n1)C(F)(F)F` (single isomer, unassigned) [Example 462, (R)-3-Hydroxy-1-methyl-3-(3-(6-(2-(((*R)-3,3,3-trifluoro-2-methoxypropyl)amino)pyrimidin-4-yl)pyridin-2-yl)isoxazol-5-yl)pyrrolidin-2-one]: 50 to 500 nM; `CO[C@@H](CNc1nccc(-c2cccc(-c3cc([C@]4(O)CCN(C)C4=O)on3)n2)n1)C(F)(F)F` (single isomer, unassigned) [Example 463, (R)-3-Hydroxy-1-methyl-3-(3-(6-(2-(((*S)-3,3,3-trifluoro-2-methoxypropyl)amino)pyrimidin-4-yl)pyridin-2-yl)isoxazol-5-yl)pyrrolidin-2-one]: 50 to 500 nM; `CO[C@H]1COCC[C@@H]1Nc1nccc(-c2cccc(-c3cc([C@]4(O)CCN(C)C4=O)on3)n2)n1` (stereo in doubt) [Example 355, (R)-3-Hydroxy-3-(3-(6-(2-(((trans)-3-methoxytetrahydro-2H-pyran-4-yl)amino)pyrimidin-4-yl)pyridin-2-yl)isoxazol-5-yl)-1-methylpyrrolidin-2-one]: over 500 nM.

Consider `CN1C(=O)[C@](O)(c2cc(-c3cccc(-c4ccnc(Nc5ccn(C)n5)n4)n3)no2)C[C@H]1C(F)(F)F` [Example 1, (3R,5S)-3-Hydroxy-1-methyl-3-(3-(6-(2-((1-methyl-1H-pyrazol-3-yl)amino)pyrimidin-4-yl)pyridin-2-yl)isoxazol-5-yl)-5-(trifluoromethyl)pyrrolidin-2-one], for which the IC50 fell in the range of 50 to 500 nM. Next, `CN1CC[C@@](O)(c2cc(-c3cc(C(F)(F)F)cc(-c4ccnc(Nc5ccn(C)n5)n4)n3)no2)C1=O` [Example 2, (R)-3-Hydroxy-1-methyl-3-(3-(6-(2-((1-methyl-1H-pyrazol-3-yl)amino)pyrimidin-4-yl)-4-(trifluoromethyl)pyridin-2-yl)isoxazol-5-yl)pyrrolidin-2-one]: under 50 nM; `CN1CC(F)(F)[C@@](O)(c2cc(-c3cccc(-c4ccnc(Nc5cnn(C)c5)n4)n3)no2)C1=O` [Example 3, (R)-4,4-Difluoro-3-hydroxy-1-methyl-3-(3-(6-(2-((1-methyl-1H-pyrazol-4-yl)amino)pyrimidin-4-yl)pyridin-2-yl)isoxazol-5-yl)pyrrolidin-2-one]: under 50 nM. In the case of `CN1CC[C@@](O)(c2cc(-c3cc(C(F)(F)F)cc(-c4ccnc(Nc5cnn(C)c5)n4)n3)no2)C1=O` [Example 4, (R)-3-Hydroxy-1-methyl-3-(3-(6-(2-((1-methyl-1H-pyrazol-4-yl)amino)pyrimidin-4-yl)-4-(trifluoromethyl)pyridin-2-yl)isoxazol-5-yl)pyrrolidin-2-one], the IC50 was under 50 nM. With `[2H]C1([2H])N(C)C(=O)[C@](O)(c2cc(-c3cccc(-c4ccnc(Nc5cnn(C)c5)n4)n3)no2)C1([2H])[2H]` [Example 5, (R)-3-Hydroxy-1-methyl-3-(3-(6-(2-((1-methyl-1H-pyrazol-4-yl)amino)pyrimidin-4-yl)pyridin-2-yl)isoxazol-5-yl)pyrrolidin-2-one-4,4,5,5-d4], the IC50 was under 50 nM. Next, `CN1C(=O)[C@](O)(c2cc(-c3cccc(-c4ccnc(Nc5cnn(C)c5)n4)n3)no2)C[C@H]1C(F)(F)F` [Example 6, (3R,5S)-3-Hydroxy-1-methyl-3-(3-(6-(2-((1-methyl-1H-pyrazol-4-yl)amino)pyrimidin-4-yl)pyridin-2-yl)isoxazol-5-yl)-5-(trifluoromethyl)pyrrolidin-2-one]: 50 to 500 nM; `[2H]C1([2H])N(C)C(=O)[C@](O)(c2cc(-c3cccc(-c4ccnc(Nc5cnn(CC)c5)n4)n3)no2)C1([2H])[2H]` [Example 7, (R)-3-(3-(6-(2-((1-Ethyl-1H-pyrazol-4-yl)amino)pyrimidin-4-yl)pyridin-2-yl)isoxazol-5-yl)-3-hydroxy-1-methylpyrrolidin-2-one-4,4,5,5-d4]: under 50 nM. With `[2H]C1([2H])N(C)C(=O)[C@](O)(c2cc(-c3cccc(-c4ccnc(Nc5ccn(C)n5)n4)n3)no2)C1([2H])[2H]` [Example 8, (R)-3-Hydroxy-1-methyl-3-(3-(6-(2-((1-methyl-1H-pyrazol-3-yl)amino)pyrimidin-4-yl)pyridin-2-yl)isoxazol-5-yl)pyrrolidin-2-one-4,4,5,5-d4], the IC50 was under 50 nM. As to `COc1nn(C(CO)CO)cc1Nc1nccc(-c2cccc(-c3cc([C@]4(O)CCN(C)C4=O)on3)n2)n1` [Example 9, (R)-3-(3-(6-(2-((1-(1,3-Dihydroxypropan-2-yl)-3-methoxy-1H-pyrazol-4-yl)amino)pyrimidin-4-yl)pyridin-2-yl)isoxazol-5-yl)-3-hydroxy-1-methylpyrrolidin-2-one], the IC50 was in the range of 50 to 500 nM. The same measure for `CN1CCC(n2cc(Nc3nccc(-c4cccc(-c5cc([C@@]6(O)C(=O)N(C)CC6(F)F)on5)n4)n3)cn2)CC1` [Example 10, (R)-4,4-Difluoro-3-hydroxy-1-methyl-3-(3-(6-(2-((1-(1-methylpiperidin-4-yl)-1H-pyrazol-4-yl)amino)pyrimidin-4-yl)pyridin-2-yl)isoxazol-5-yl)pyrrolidin-2-one]: 50 to 500 nM; for `CN1CC[C@@](O)(c2cc(-c3cccc(-c4ccnc(N[C@H]5CCOC5)n4)c3)no2)C1=O` [Example 11, (R)-3-Hydroxy-1-methyl-3-(3-(3-(2-(((S)-tetrahydrofuran-3-yl)amino)pyrimidin-4-yl)phenyl)isoxazol-5-yl)pyrrolidin-2-one]: over 500 nM; for `CN1CC[C@@](O)(c2cc(-c3cccc(-c4ccnc(N[C@@H]5CCOC5)n4)c3)no2)C1=O` [Example 12, (R)-3-Hydroxy-1-methyl-3-(3-(3-(2-(((R)-tetrahydrofuran-3-yl)amino)pyrimidin-4-yl)phenyl)isoxazol-5-yl)pyrrolidin-2-one]: over 500 nM. Next, `CN1CC[C@@](O)(c2cc(-c3cccc(-c4ccnc(N[C@H]5CC[C@H](O)C5)n4)c3)no2)C1=O` [Example 13, (R)-3-Hydroxy-3-(3-(3-(2-(((1 S,3S)-3-hydroxycyclopentyl)amino)pyrimidin-4-yl)phenyl)isoxazol-5-yl)-1-methylpyrrolidin-2-one]: over 500 nM; `CN1CC[C@@](O)(c2cc(-c3cccc(-c4ccnc(N[C@H]5CC[C@@H](O)C5)n4)c3)no2)C1=O` [Example 14, (R)-3-Hydroxy-3-(3-(3-(2-(((1 S,3R)-3-hydroxycyclopentyl)amino)pyrimidin-4-yl)phenyl)isoxazol-5-yl)-1-methylpyrrolidin-2-one]: over 500 nM; `CN1CC[C@@](O)(c2cc(-c3cccc(-c4ccnc(Nc5cnn6c5OCCC6)n4)c3)no2)C1=O` [Example 15, (R)-3-(3-(3-(2-((6,7-Dihydro-5H-pyrazolo[5,1-b][1,3]oxazin-3-yl)amino)pyrimidin-4-yl)phenyl)isoxazol-5-yl)-3-hydroxy-1-methylpyrrolidin-2-one]: over 500 nM. The same measure for `COc1cn(C)nc1Nc1nccc(-c2cccc(-c3cc([C@]4(O)CCN(C)C4=O)on3)c2)n1` [Example 16, (R)-3-Hydroxy-3-(3-(3-(2-((4-methoxy-1-methyl-1H-pyrazol-3-yl)amino)pyrimidin-4-yl)phenyl)isoxazol-5-yl)-1-methylpyrrolidin-2-one]: over 500 nM; for `COc1nn(C)cc1Nc1nccc(-c2cccc(-c3cc([C@]4(O)CCN(C)C4=O)on3)c2)n1` [Example 17, (R)-3-Hydroxy-3-(3-(3-(2-((3-methoxy-1-methyl-1H-pyrazol-4-yl)amino)pyrimidin-4-yl)phenyl)isoxazol-5-yl)-1-methylpyrrolidin-2-one]: 50 to 500 nM; for `CN1CC[C@@](O)(c2cc(-c3cccc(-c4ccnc(Nc5cnn6cccnc56)n4)c3)no2)C1=O` [Example 18, (R)-3-Hydroxy-1-methyl-3-(3-(3-(2-(pyrazolo[1,5-a]pyrimidin-3-ylamino)pyrimidin-4-yl)phenyl)isoxazol-5-yl)pyrrolidin-2-one]: over 500 nM. For `CN1CC[C@@](O)(c2cc(-c3cccc(-c4ccnc(N5CCCn6ncc(N)c65)n4)c3)no2)C1=O` [Example 19, (R)-3-(3-(3-(2-(3-Amino-6,7-dihydropyrazolo[1,5-a]pyrimidin-4(5H)-)pyrimidin-4-yl)phenyl)isoxazol-5-yl)-3-hydroxy-1-methylpyrrolidin-2-one], the IC50 is over 500 nM. For the compound `CN1CC[C@@](O)(c2cc(-c3cccc(-c4ccnc(Nc5cnn6c5NCCC6)n4)c3)no2)C1=O` [Example 20, (R)-3-Hydroxy-1-methyl-3-(3-(3-(2-((4,5,6,7-tetrahydropyrazolo[1,5-a]pyrimidin-3-yl)amino)pyrimidin-4-yl)phenyl)isoxazol-5-yl)pyrrolidin-2-one], the IC50 is over 500 nM. The same measure for `CN1CC[C@@](O)(c2cc(-c3cccc(-c4ccnc(Nc5cnn(C)c5N)n4)c3)no2)C1=O` [Example 21, (R)-3-(3-(3-(2-((5-Amino-1-methyl-1H-pyrazol-4-yl)amino)pyrimidin-4-yl)phenyl)isoxazol-5-yl)-3-hydroxy-1-methylpyrrolidin-2-one]: over 500 nM. With `CN1CC[C@@](O)(c2cc(-c3cccc(-c4ccnc(Nc5cc6n(n5)CCOC6)n4)c3)no2)C1=O` [Example 22, (R)-3-(3-(3-(2-((6,7-Dihydro-4H-pyrazolo[5,1-c][1,4]oxazin-2-yl)amino)pyrimidin-4-yl)phenyl)isoxazol-5-yl)-3-hydroxy-1-methylpyrrolidin-2-one], the IC50 is over 500 nM.

The values are drawn from patent US20250282768A1 (Janssen Pharmaceutica NV, priority 2022, published 2025).
